The source made the active and inactive calls. Rule as the data show it: actives have a measured IC50 and inactives only a lower limit.

The assay deals with Envelope glycoprotein gp160 (Human immunodeficiency virus 1, UniProt Q6QLK5). The assay is described as follows: inhibitors of HIV fusion peptide binding, primary screen, biochemical, uHTS, fluorescence dequenching (AID 1986).
Envelope glycoprotein gp160, sequence (Q6QLK5 whole entry, the tested form may be a part): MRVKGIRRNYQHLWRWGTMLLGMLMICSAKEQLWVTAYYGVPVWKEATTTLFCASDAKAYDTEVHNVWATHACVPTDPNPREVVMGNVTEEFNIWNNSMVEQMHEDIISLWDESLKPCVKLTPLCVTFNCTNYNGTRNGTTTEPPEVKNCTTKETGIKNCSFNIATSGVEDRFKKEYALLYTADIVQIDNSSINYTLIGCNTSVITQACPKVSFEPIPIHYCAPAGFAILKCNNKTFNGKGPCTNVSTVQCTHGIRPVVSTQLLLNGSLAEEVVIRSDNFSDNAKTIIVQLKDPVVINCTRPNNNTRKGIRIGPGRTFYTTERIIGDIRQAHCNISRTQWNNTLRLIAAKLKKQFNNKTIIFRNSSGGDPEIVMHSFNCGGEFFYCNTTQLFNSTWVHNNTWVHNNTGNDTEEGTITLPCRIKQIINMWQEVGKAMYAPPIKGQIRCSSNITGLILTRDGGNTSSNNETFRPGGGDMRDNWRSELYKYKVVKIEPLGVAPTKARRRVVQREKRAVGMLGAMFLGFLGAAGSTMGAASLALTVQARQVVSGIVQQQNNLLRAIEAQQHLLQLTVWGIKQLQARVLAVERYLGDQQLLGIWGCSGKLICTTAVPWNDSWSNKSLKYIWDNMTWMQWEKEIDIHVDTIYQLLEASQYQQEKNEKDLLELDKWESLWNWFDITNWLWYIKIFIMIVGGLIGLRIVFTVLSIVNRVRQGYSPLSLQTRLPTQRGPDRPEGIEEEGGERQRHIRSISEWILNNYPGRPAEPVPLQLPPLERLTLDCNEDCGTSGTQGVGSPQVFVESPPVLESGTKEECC

Turning to `CCOc1cc(/C=C2/C(=N)N3C(=NC2=O)SN=C3S(=O)(=O)CC)ccc1OC(=O)c1ccco1`, the half-maximal inhibitory concentration (IC50) (in general, the concentration that inhibits the measured activity by half) was 19.3 µM (active).

For the origin of these results see ChEMBL document CHEMBL1201862, “PubChem BioAssay data set” (2004).
